Data published in patent US20220378763A1, “COMPOUND FOR TREATMENT OF ACUTE INFLAMMATION IN THE MYOCARDIUM” (CALPROTECT AB, priority 2019, published 2022).

Experiments:
Type in all cases: in vivo, mouse
[1] = test system: BALB/c mice with induced myocarditis; assay: Myocarditis induced by cardiac α-myosin peptide: echocardiography; conditions: 30 mg/kg/day orally from day 7
Experimental: Female BALB/c mice, 8 weeks of age, were purchased from Taconic and housed under 12 h:12 h light:dark cycles with access to food and water ad libitum. To induce myocarditis, all mice were injected subcutaneously (s.c.) with 100 μg murine cardiac a-myosin heavy chain peptide (Ac-RSLKLMATLFSTYASADR-OH, Anaspec) emulsified 1:1 in complete Freund's adjuvant containing 1 mg/mL heat-killed Mycobacterium tuberculosis H37Ra (Sigma-Aldrich), on days 0 and 7 (FIG. 17A). ABR-238901 was administered orally ad-libitum diluted in meglumine buffer (to prevent precipitation in the drinking bottle during the course of the experiment) at a dose of 30 mg/kg/day, starting on day 7 and throughout the course of the experiment (n=9 mice). Fluid intake was closely monitored during the experiment to ensure an appropriate drug dosage. Mice with induced myocarditis drinking meglumine buffer alone ad-libitum were used as controls (n=12 mice). Mice received daily attendance to ensure their well-being. All mouse studies were approved by the Animal Research Ethics Committee of Lund University.
Transthoracic echocardiography was performed as described under Example 7. Cardiac function was evaluated by echocardiography at baseline and at 21, 28 and 35 days after the first injection of murine cardiac a-myosin heavy chain peptide.

[2] = test system: C57BL/6 mice with coronary artery ligation for 60 minutes followed by reperfusion; assay: Myocardial ischemia (60 minutes)/reperfusion, short-term (3 days) treatment: echocardiography and flow cytometry
Experimental: (a) C57BL/6 mice with MI induced by coronary artery ligation for 60 minutes followed by reperfusion received three daily i.p. injections of ABR or PBS, starting at the time of reperfusion and administered on days 0, 1 and 2 post-MI. Cardiac function was assessed by echocardiography the day before surgery and on days 3, 7, 14 and 21 in the Sham (n=10), Sham+ABR (n=10), MI (n=22) and MI+3d ABR (n=13) groups. […] (F) Neutrophil and (G) monocyte counts in the bone marrow were increased 2 days after myocardial ischaemia/reperfusion in the MI+3d ABR group (n=6) compared to the MI group treated with PBS (n=6). (H) Neutrophil, (I) monocyte, and (J) macrophage numbers in the myocardium in the MI and MI+3d ABR groups on Day 2 post-MI. […] The P-values refer to the difference between the MI and the MI+3d ABR groups. The P-values for the repeated measurement experiments refer to the difference between the MI and the MI+3d ABR groups, analysed by 2-way ANOVA with Fisher LSD post-hoc evaluation. Only the significant P-values are shown. Data is presented as mean±SD.
Ultrasound measurements were performed at day −1 (baseline), 7, and 21 to assess cardiac function using a Vevo 770 echocardiographic imaging system with a 707B probe (VisualSonics, Toronto, Canada). In selected experiments, additional assessment was performed on days 3 and 14. The mice were anesthetized using 1-3% isoflurane and hair was carefully removed using depilatory cream. To maintain body temperature, the mice were placed in supine position on a heated surface (37° C.). Two-dimensional M-mode images were recorded in the parasternal short-axis view at the mid-papillary level. Five complete cardiac cycles were traced to calculate fractional shortening, ejection fraction, left ventricular systolic volume, and left ventricular diastolic volume by using the VisualSonics software.
Procedures were carried out as outlined in Example 2. In contrast to permanent ischemia, the coronary artery occlusion was maintained for 60 minutes followed by removal of the ligature, allowing for reperfusion of the ischemic myocardium. Three doses of 30 mg/Kg ABR-238901 diluted in PBS were administered by daily i.p. injections at the time of the reperfusion, and after 24 h and 48 h (FIG. 5A).

[3] = test system: BALB/c mice with induced myocarditis; assay: Myocarditis induced by cardiac α-myosin peptide: flow cytometry of heart and heart-draining lymph nodes; conditions: day 21
Experimental: Animal care, induction of myocarditis and treatments were performed as described above (Example 11) (n=10 mice per group). The mice were sacrificed on day 21, and hearts and mediastinal heart-draining lymph nodes were isolated.
Single cell suspensions were obtained from the organs by mechanic sectioning and enzymatic digestion, and the cells were stained with fluorescently-conjugated antibodies for analysis by flow cytometry. After euthanization, the mice were perfused intra-cardially with 20 ml ice-cold PBS, hearts and mediastinal lymph nodes were harvested and placed in PBS on ice. Hearts were cut in small pieces for 2 min while placed in digestion mixture containing 450 U/ml Collagenase I-S (Sigma-Aldrich, C0130), 125 U/ml Collagenase XI (Sigma-Aldrich, C7657), 60 U/ml Hyaluronidase Type I-S(Sigma-Aldrich H3506), 60 U/ml DNAse I (Sigma-Aldrich, DN25), and 20 mM HEPES (Fischer Scientific, SH3023701) in PBS, and thereafter incubated for 1 h at 37° C. with gentle agitation. Enzymatically-digested tissues were passed through a 70 μm cell strainer and washed twice with PBS. Mediastinal lymph nodes were passed through a 70 μm cell strainer and washed twice with PBS before staining. Single cell suspensions were stained in PBS with Zombie Aqua live/dead (BioLegend, 423102) for 10 min at RT followed by extracellular staining in FC-buffer (PBS, 0.5% BSA and 20 mM EDTA) with fluorescently-conjugated antibodies for 20 min on ice. The following monoclonal antibodies were used: anti-CD3ε (clone 145-2C11), anti-CD4 (clone OKT4), anti-CD8 (clone RPA-T8), anti-CD11b (clone EP1345Y), anti-CD11c (clone N418), anti-CD19 (clone 6D5), anti-CD44 (clone IM7), anti-CD45.2 (clone 104), anti-CD49b (clone DX5) anti-CD62L (clone MEL-14), […], anti-CD69 (clone X54-5/7.1), anti-CD115 (clone AFS98), anti-Ly-6C (clone HK1.4), anti-Ly-6G (clone 1A8), anti-MerTK (clone DS5MMER), anti-MHCII (clone M5/114.15.2), anti-Siglec-F (clone E50-2440). Appropriate single stains were performed using AbC Total Antibody Compensation Bead kit (Thermo Fischer Scientific) or with cells for live/dead. Flow cytometry analysis was done using a Gallios Flow Cytometer (Beckman Coulter) and data was analyzed using the FlowJo software (Tree Star).

[4] = 2 days after ischemia/reperfusion

COc1ncc(S(=O)(=O)Nc2cncc(Cl)c2O)cc1Br [ABR-238901, 5-bromo-N-(5-chloro-4-hydroxypyridin-3-yl)-6-methoxypyridine-3-sulfonamide]
Cardiac output ([1]; day 28): 11.26 mL/min | Left ventricular ejection fraction (LVEF) ([1]; day 28): 52% | Cardiac output ([1]; day 35): 12.03 mL/min | Left ventricular ejection fraction (LVEF) ([1]; day 35): 53% | Left ventricular EF ([2]; 30 mg/Kg i.p. at reperfusion, 24 h, 48 h, echocardiography, day 3): 42% | Left ventricular EF, average ([2]; 30 mg/Kg i.p. at reperfusion, 24 h, 48 h, echocardiography, day 7): 45% | Left ventricular EF ([2]; 30 mg/Kg i.p. at reperfusion, 24 h, 48 h, echocardiography, day 21): 48% | Numbers of monocytes in the bone marrow [2, 4]: increased | Numbers of neutrophils in the bone marrow [2, 4]: increased | Average EDV vs MI control ([2]; 3 days treatment): no significant differences | Average ESV vs MI control ([2]; 3 days treatment): no significant differences | Cardiac output, average ([2]; 3 days treatment, day 21): 15.7 mL/min | Macrophage infiltration in the myocardium ([2]; day 2 after ischemia/reperfusion): decreased | Cardiac eosinophil infiltration, percent of live CD45+ leukocytes [3]: 7.5% | Effector memory (CD44+CD62L−) CD4+ T cells in heart-draining lymph nodes, percent of live CD45+CD3+ T cells [3]: 15.9% | Effector memory (CD44+CD62L−) CD8+ T cells in heart-draining lymph nodes, percent of live CD45+CD3+ T cells [3]: 23.3% | Infiltration of cDCs in the heart, % of live CD45+ leukocytes [3]: 5.7% | Total CD3+ T cells in heart-draining lymph nodes, % of live CD45+ leukocytes [3]: 59.5%
